Source: patent US20090176718A1, “Berry Preparations For Treatment Of Diabetes And Metabolic Syndrome” (priority 2007, published 2009)
Marks after values point to notes of the source that are not given here.

What was measured:
[1] = system: male C57bl/6J mice fed very high-fat diet (diet induced diabetes); test: Blood glucose levels in food restricted high-fat-diet (diabetic) C57BL/6J mice after gavage, vehicle 66% LABRASOL; type: in vivo, mouse; details: for Hypoglycemic activity (in words): 300 mg/kg; for % decrease from 0 h / Blood glucose, 6 hours: 6 hours
Text: The C57B6 mouse strain becomes diabetic when maintained on a high fat diet, it therefore serves as a model for Type 2 diabetes. A screen for treatments effective against diet induced diabetes utilizes male C57BL/6J mice (4-5 week old, 19-20 g) fed a high-fat diet (60% fat in kcal) for 10-16 weeks. This diet induces obesity and diabetes in this mouse strain. Extracts that induce a 20-40% decline in the blood glucose level are used for further testing.
Five-week-old male C57bl/6J mice were purchased from Jackson Labs (Maine) and were acclimatized for 1 week before being randomly assigned into the experimental groups. The animals were housed four to a cage with free access to water in a room with a 12:12 hour light-dark cycle (7:00 AM-7:00 PM), a temperature of 24±1° C., and the animals were weighed weekly. During the acclimatization period, each animal was fed a regular diet ad libitum. At 6-weeks old, the mice were randomly divided into two groups: low fat or very high fat fed groups. The mice continued to receive either a low fat diet (LFD) or very high-fat diet (VHFD) for a 12-week period. The high-fat diet food was purchased from Research Diets Inc., and the nutrition content of very high-fat diet food was similar to that of the low fat diet food except that carbohydrates were lower (70 kcal % vs. 20 kcal %) and the addition of more lard (10 kcal % vs. 60 kcal %) in the diet. Body weights were measured weekly, and at every other week blood was collected for blood glucose analysis. […] Animals fed with LFD were also fasted for 4 hours. […] As a positive control, metformin (Fortamet®, Gluocphase®, Glumetza®, Romet®) was administered instead of plant extract at a dose of 300 mg/kg (MET300). […] Without being limited by theory, metformin may act by increasing insulin sensitivity via increasing the utilization of glucose. The experimental protocols were approved by Rutgers University Institutional Care and Use Committee and followed federal, and state laws.
All treatments were provided by gavage with a vehicle of 66% LABRASOL®, a lipid-based self-emulsifying excipient. Abbreviations for Table 1 are as follows: FC=crude extract, F2=anthocyanin enriched extract, FT=treated extract to promote chalcone formation, metformin is a drug used as a positive control. The results were as follows:
All treatments were provided by gavage with a vehicle of 66% LABRASOL®. Abbreviations for Table 2 are as follows: FC=crude extract, F2=anthocyanin-enriched extract, FT=treated extract to promote chalcone formation, metformin is a drug used as a positive control; *:p<0.05; **:p<0.01; ***:p<0.001 vs 0 hours; c:p<0.05; cc:p<0.01; ccc:p<0.001 vs LABRASOL®. The results were as follows:
All treatments were provided by gavage with a vehicle of 66% LABRASOL®. Abbreviations for Table 3 are as follows: FT=treated extract to promote chalcone formation, F2=anthocyanin enriched extract, MBCE=maqui berry crude extract, MBA=maqui berry anthocyanin-rich extract, metformin is a drug used as a positive control; *:p<0.05; **:p<0.01; ***:p<0.001 vs. 0 hours; c:p<0.05; cc:p<0.01; ccc:p<0.001 vs. LABRASOL®.
The hypoglycemic effects of delphinidin-3-glucoside (Dp 3-glc) and malvidin-3-glucoside (Mv-3-glc) relative to blueberry anthocyanin-enriched extracts and metformin in insulin resistant C57bl/6J mice were investigated. Malvidin glycosides are the predominant anthocyanins of the lowbush blueberry extracts. Delphinidin-3-glucoside likely is a major component of the blueberry extracts. It is reported to be the active hypoglycemic compound from the leaves of Vaccinium species. The animals were maintained on a high fat diet and food restricted 4 hours prior to treatment by gavage. The extracts and metformin were formulated with 66% Labrasol as the delivery vehicle

[2] = system: food restricted C57B6 mice; test: Blood glucose levels in food restricted C57B6 mice using water as the gavage vehicle; type: in vivo, mouse; details: Table 5, 300 mg/kg gavage
Method: Five-week-old male C57bl/6J mice were purchased from Jackson Labs (Maine) and were acclimatized for 1 week before being randomly assigned into the experimental groups. The animals were housed four to a cage with free access to water in a room with a 12:12 hour light-dark cycle (7:00 AM-7:00 PM), a temperature of 24±1° C., and the animals were weighed weekly. During the acclimatization period, each animal was fed a regular diet ad libitum. At 6-weeks old, the mice were randomly divided into two groups: low fat or very high fat fed groups. The mice continued to receive either a low fat diet (LFD) or very high-fat diet (VHFD) for a 12-week period. The high-fat diet food was purchased from Research Diets Inc., and the nutrition content of very high-fat diet food was similar to that of the low fat diet food except that carbohydrates were lower (70 kcal % vs. 20 kcal %) and the addition of more lard (10 kcal % vs. 60 kcal %) in the diet. Body weights were measured weekly, and at every other week blood was collected for blood glucose analysis. Animals fed with VHFD were fasted for 4 hours and fed orally (gavage) with plant extracts (500 mg/kg) or […] to test efficacy of plant extracts. Animals fed with LFD were also fasted for 4 hours. Blood glucose readings are made 0 hours, 3 hours, and 6 hours after treatment (animals were fasted during the testing period). As a positive control, metformin (Fortamet®, Gluocphase®, Glumetza®, Romet®) was administered instead of plant extract at a dose of 300 mg/kg (MET300). […] Without being limited by theory, metformin may act by increasing insulin sensitivity via increasing the utilization of glucose. The experimental protocols were approved by Rutgers University Institutional Care and Use Committee and followed federal, and state laws.
The MBA was active at both 500 mg/kg and 250 mg/kg. Therefore, the use of Labrasol as a bioenhancing agent dose was not necessary with the MBA. A robust response was seen when Labrasol was not included in the dosing vehicle.

[3] = Example 3, 300 mg/kg by gavage with Labrasol, insulin resistant C57bl/6J mice
[4] = Table 4, insulin resistant C57bl/6J mice, 300 mg/kg gavage in 66% Labrasol
[5] = Table 2, 300 mg/kg gavage in 66% LABRASOL
[6] = Table 3, 250 mg/kg gavage in 66% LABRASOL

## COc1cc(-c2[o+]c3cc(O)cc(O)c3cc2O[C@@H]2O[C@H](CO)[C@@H](O)[C@H](O)[C@H]2O)cc(OC)c1O [Mv-3-glc, malvidin-3-glucoside]
[1]; Example 3, 300 mg/kg by gavage with Labrasol
  Lowered blood glucose levels by: 34%
[1]; [3]
  Hypoglycemic activity (in words): comparable to the hypoglycemic activity of the phenolics-rich extract at a dose of 500 mg/kg
[1]; Example 3, 300 mg/kg by gavage with Labrasol, insulin resistant C57bl/6J mice, listed as malvidin glucoside
  Hypoglycemic activity (in words): comparable to the metformin positive control at 300 mg/kg
[1]; [4]
  Blood glucose, 0 hours: 204 ± 20.8
  % decrease from 0 h: −31 ± 6.3%
  Blood glucose, 6 hours: 134.4 ± 8.3

## CN(C)C(=N)N=C(N)N [Metformin, metformin]
[1]; Table 1, 300 mg/kg gavage in 66% LABRASOL
  Blood glucose, 0 hours: 226 ± 18
[1]; Table 1, 300 mg/kg gavage in 66% LABRASOL, 2 hours
  Blood glucose, 2 hours: 183 ± 25
[1]; Table 1, 300 mg/kg gavage in 66% LABRASOL, 4 hours
  Blood glucose, 4 hours: 165 ± 29
[1]; Table 1, 300 mg/kg gavage in 66% LABRASOL, last time point 4 hours
  % decrease from 0 hours: −27%
[1]; [5]
  Blood glucose, 0 hours: 207 ± 18
  Blood glucose, 3 hours: 211 ± 15
[1]; Table 2, 300 mg/kg gavage in 66% LABRASOL, 5 hours
  Blood glucose, 5 hours: 128 ± 17**^cc
[1]; Table 2, 300 mg/kg gavage in 66% LABRASOL, last time point 5 hours
  % decrease from 0 hours: −38%
[1]; [6]
  Blood glucose, 0 hours: 249 ± 29
  Blood glucose, 3 hours: 273 ± 32
  Blood glucose, 6 hours: 214 ± 39
[1]; Table 3, 250 mg/kg gavage in 66% LABRASOL, last time point 6 hours
  % decrease from 0 hours: −14%
[1]; [4]
  Blood glucose, 0 hours: 206.7 ± 11
  % decrease from 0 h: −49 ± 4.5%
  Blood glucose, 6 hours: 108 ± 8.9
[2]; 0 hours
  Blood glucose, 0 hours: 189 ± 11.1
[2]; 6 hours
  % decrease from 0 hours: −43.4 ± 7.8%
  Blood glucose, 6 hours: 106.8 ± 14.2

## OC[C@H]1O[C@@H](Oc2cc3c(O)cc(O)cc3[o+]c2-c2cc(O)c(O)c(O)c2)[C@H](O)[C@@H](O)[C@@H]1O [Dp 3-glc, delphinidin-3-glucoside]
[1]; [3]
  Hypoglycemic activity (in words): did not significantly show hypoglycemic activity
[1]; Example 3, 300 mg/kg by gavage with Labrasol, insulin resistant C57bl/6J mice, listed as delphinidin-3-O-glucoside
  Hypoglycemic activity (in words): did not have significant hypoglycemic activity
[1]; [4]
  Blood glucose, 0 hours: 214 ± 7.4
  % decrease from 0 h: −17 ± 5.7%
  Blood glucose, 6 hours: 186.6 ± 15.5
